Source: US9936724B2, “Sweetener compositions” (Givaudan, S.A., priority 2014, dated 2018)
Peptide text beside a SMILES is read from it.

Assays:
[1] = Solubility in water at room temperature; assay type: physicochemical; settings: for solubility: in water at room temperature; for solubility in water, comparison in words: compared with other dihydrochalcones / with 3-phenyl-1-(2,4,6-trimethoxyphenyl)propan-1-one
[2] = Masking of off-notes of high-intensity sweeteners (comparison of dihydrochalcones); settings: used at soluble concentrations
[3] = relative to sucrose; cited from earlier work

solubility [1] | Compound | masking properties / masking effect [2] | solubility in water, comparison in words [1] | times sweeter than sucrose [3]
below 5 ppm | COc1ccc(CCC(=O)c2c(O)cc(OC)cc2OC)cc1 [1-(2-hydroxy-4,6-dimethoxyphenyl)-3-(4-methoxyphenyl)propan-1-one] | significantly lower masking effect |  | 
greater than 30 ppm | COc1cc(OC)c(C(=O)CCc2ccccc2)c(OC)c1 [3-phenyl-1-(2,4,6-trimethoxy-phenyl)propan-1-one] | particularly good masking properties | much higher solubility in water than other dihydrochalcones | 
 | COC(=O)[C@H](Cc1ccccc1)NC(=O)[C@@H](N)CC(=O)O [Aspartame] (H-Asp-Phe-OMe) |  |  | 160-200 times
 | O=C(CCc1ccc(O)cc1)c1c(O)cc(O)cc1O [phloretin, 3-(4-hydroxyphenyl)-1-(2,4,6-trihydroxyphenyl)propan-1-one] | did not provide masking properties | soluble to a similar extent | 
 | O=S(=O)([O-])NC1CCCCC1.[Na+] [sodium cyclamate] |  |  | about 30 times
 | OC[C@H]1O[C@H](O[C@]2(CCl)O[C@H](CCl)[C@@H](O)[C@@H]2O)[C@H](O)[C@@H](O)[C@H]1Cl [sucralose] |  |  | about 600 times
 | thaumatin |  |  | about 2 000 times
